Test results: PMC5423974 (European Journal of Clinical Pharmacology, 2017)

Columns and labels:
ABCG2 = experiment: Pharmacogenetic association of genetic variants with dose-normalized PK (linear regression, additive model; random effects meta-analysis); assay type: in vivo, human
Experimental: (§1) Five of the six genetic variants analyzed (CYP2C19*2, CYP2C19*3, CYP2C19*17, UGT1A1*6, ABCG2 421C > A) were single nucleotide polymorphisms while one genetic variant was a tandem repeat (UGT1A1*28.) Genotyping of the variants was performed using a Luminex CYP2C19 assay (for CYP2C19*2, CYP2C19*3 and CYP2C19*17), Taqman assays (for UGT1A1*6 and ABCG2 421C > A), and fragment analysis (for UGT1A1*28).
(§2) Each genetic variant was tested for any association with dose-normalized AUC, AUC0–12 or Cmax, using linear regression under an additive genetic model (i.e. phenotypic response per additional copy of the variant allele, where 0, 1 or 2 copies can be present at each locus). For each PK parameter Bonferroni’s correction was used to control for multiple testing when assessing statistical significance. A p value below 0.008 (p < 0.05 with Bonferoni correction for 6 tests) was considered statistically significant. Given the variation in frequency of the variant alleles, analyses were performed stratified by ethnic group (Asian, White, Black) across the studies. A combined estimate across populations was obtained using random effects meta-analysis to allow for between-population heterogeneity.
(§3) Genotype distributions were tested for deviation from Hardy-Weinberg equilibrium using Chi-squared tests. All pharmacogenetic analyses were performed using either StataSE version 14.1 or R statistical software version 3.2.2.

CYP2C19 = experiment: as above; assay type: in vivo, human
Experimental: as §1, §2, §3

UGT1A1 = experiment: as above; assay type: in vivo, human
Experimental: as §1, §2, §3

[1] = Safety and tolerability in Study 86 (Asian study); assay type: in vivo, human
From the text: Safety and tolerability findings obtained from Study 86 were summarized and compared descriptively to the safety and tolerability findings from the studies in Western subjects. Additional safety and tolerability data for the Western studies are reported in detail elsewhere and include references.

[2] = test system: Breast Cancer Resistance Protein (BCRP); parameters: method as in earlier work; details: ref 1 Report nos. Be000021–21 and D6244 KMN036, data on file, AstraZeneca; cited from earlier work
[3] = human, in vivo; cited from earlier work
[4] = combined across ethnicities, random effects meta-analysis, N 87
[5] = CYP219C*2, combined across ethnicities, random effects meta-analysis, N 87
[6] = CYP219C*3, combined analysis, N 42
[7] = CYP219C*17, combined across ethnicities, random effects meta-analysis, N 87
[8] = UGTA1*6, combined analysis, N 42
[9] = UGTA1*28/37, combined across ethnicities, random effects meta-analysis, N 87
[10] = Study 86, Asian healthy subjects, 25, 35 and 50 mg

Structure (SMILES): Cn1cnc2c(F)c(Nc3ccc(Br)cc3Cl)c(C(=O)NOCCO)cc21 [selumetinib, Selumetinib]
- Beta, per-allele change in DN AUC (ABCG2; Black, N 21): 0.018 log ng.h/mL/mg
- Beta, per-allele change in DN AUC(0–12) (ABCG2; Black, N 21): -0.020 log ng.h/mL/mg
- Beta, per-allele change in DN Cmax (ABCG2; Black, N 21): -0.463 log ng/mL/mg
- Beta, per-allele change in DN AUC (ABCG2; East Asian, N 42): 0.042 log ng.h/mL/mg
- Beta, per-allele change in DN AUC(0–12) (ABCG2; East Asian, N 42): 0.043 log ng.h/mL/mg
- Beta, per-allele change in DN Cmax (ABCG2; East Asian, N 42): 0.104 log ng/mL/mg
- Beta, per-allele change in DN AUC (ABCG2; White, N 24): -0.116 log ng.h/mL/mg
- Beta, per-allele change in DN AUC(0–12) (ABCG2; White, N 24): -0.093 log ng.h/mL/mg
- Beta, per-allele change in DN Cmax (ABCG2; White, N 24): -0.119 log ng/mL/mg
- Beta, per-allele effect on DN AUC (ABCG2; [4]): 0.028 log ng.h/mL/mg
- Beta, per-allele effect on DN AUC(0–12) (ABCG2; [4]): 0.029 log ng.h/mL/mg
- Beta, per-allele effect on DN Cmax (ABCG2; [4]): 0.015 log ng/mL/mg
- Beta, per-allele change in DN AUC (CYP2C19; CYP219C*2, Black, N 21): -0.043 log ng.h/mL/mg
- Beta, per-allele change in DN AUC(0–12) (CYP2C19; CYP219C*2, Black, N 21): -0.010 log ng.h/mL/mg
- Beta, per-allele change in DN Cmax (CYP2C19; CYP219C*2, Black, N 21): -0.110 log ng/mL/mg
- Beta, per-allele change in DN AUC (CYP2C19; CYP219C*2, East Asian, N 42): 0.009 log ng.h/mL/mg
- Beta, per-allele change in DN AUC(0–12) (CYP2C19; CYP219C*2, East Asian, N 42): 0.011 log ng.h/mL/mg
- Beta, per-allele change in DN Cmax (CYP2C19; CYP219C*2, East Asian, N 42): -0.064 log ng/mL/mg
- Beta, per-allele change in DN AUC (CYP2C19; CYP219C*2, White, N 24): 0.198 log ng.h/mL/mg
- Beta, per-allele change in DN AUC(0–12) (CYP2C19; CYP219C*2, White, N 24): 0.242 log ng.h/mL/mg
- Beta, per-allele change in DN Cmax (CYP2C19; CYP219C*2, White, N 24): 0.167 log ng/mL/mg
- Beta, per-allele effect on DN AUC (CYP2C19; [5]): 0.042 log ng.h/mL/mg
- Beta, per-allele effect on DN AUC(0–12) (CYP2C19; [5]): 0.069 log ng.h/mL/mg
- Beta, per-allele effect on DN Cmax (CYP2C19; [5]): -0.010 log ng/mL/mg
- Beta, per-allele change in DN AUC (CYP2C19; CYP219C*3, East Asian, N 42): 0.063 log ng.h/mL/mg
- Beta, per-allele change in DN AUC(0–12) (CYP2C19; CYP219C*3, East Asian, N 42): 0.096 log ng.h/mL/mg
- Beta, per-allele change in DN Cmax (CYP2C19; CYP219C*3, East Asian, N 42): 0.122 log ng/mL/mg
- Beta, per-allele effect on DN AUC (CYP2C19; [6]): 0.063 log ng.h/mL/mg
- Beta, per-allele effect on DN AUC(0–12) (CYP2C19; [6]): 0.096 log ng.h/mL/mg
- Beta, per-allele effect on DN Cmax (CYP2C19; [6]): 0.122 log ng/mL/mg
- Beta, per-allele change in DN AUC (CYP2C19; CYP219C*17, Black, N 21): 0.090 log ng.h/mL/mg
- Beta, per-allele change in DN AUC(0–12) (CYP2C19; CYP219C*17, Black, N 21): 0.089 log ng.h/mL/mg
- Beta, per-allele change in DN Cmax (CYP2C19; CYP219C*17, Black, N 21): 0.086 log ng/mL/mg
- Beta, per-allele change in DN AUC (CYP2C19; CYP219C*17, East Asian, N 42): -0.104 log ng.h/mL/mg
- Beta, per-allele change in DN AUC(0–12) (CYP2C19; CYP219C*17, East Asian, N 42): -0.139 log ng.h/mL/mg
- Beta, per-allele change in DN Cmax (CYP2C19; CYP219C*17, East Asian, N 42): -0.142 log ng/mL/mg
- Beta, per-allele change in DN AUC (CYP2C19; CYP219C*17, White, N 24): -0.116 log ng.h/mL/mg
- Beta, per-allele change in DN AUC(0–12) (CYP2C19; CYP219C*17, White, N 24): -0.127 log ng.h/mL/mg
- Beta, per-allele change in DN Cmax (CYP2C19; CYP219C*17, White, N 24): 0.041 log ng/mL/mg
- Beta, per-allele effect on DN AUC (CYP2C19; [7]): 0.004 log ng.h/mL/mg
- Beta, per-allele effect on DN AUC(0–12) (CYP2C19; [7]): -0.014 log ng.h/mL/mg
- Beta, per-allele effect on DN Cmax (CYP2C19; [7]): 0.037 log ng/mL/mg
- Beta, per-allele change in DN AUC (UGT1A1; UGTA1*6, East Asian, N 42): 0.061 log ng.h/mL/mg
- Beta, per-allele change in DN Cmax (UGT1A1; UGTA1*6, East Asian, N 42): 0.073 log ng/mL/mg
- Beta, per-allele effect on DN AUC (UGT1A1; [8]): 0.061 log ng.h/mL/mg
- Beta, per-allele effect on DN Cmax (UGT1A1; [8]): 0.073 log ng/mL/mg
- Beta, per-allele change in DN AUC (UGT1A1; UGTA1*28/37, Black, N 21): 0.052 log ng.h/mL/mg
- Beta, per-allele change in DN Cmax (UGT1A1; UGTA1*28/37, Black, N 21): 0.048 log ng/mL/mg
- Beta, per-allele change in DN AUC (UGT1A1; UGTA1*28/37, East Asian, N 42): -0.153 log ng.h/mL/mg
- Beta, per-allele change in DN Cmax (UGT1A1; UGTA1*28/37, East Asian, N 42): -0.152 log ng/mL/mg
- Beta, per-allele change in DN AUC (UGT1A1; UGTA1*28/37, White, N 24): -0.033 log ng.h/mL/mg
- Beta, per-allele change in DN Cmax (UGT1A1; UGTA1*28/37, White, N 24): 0.190 log ng/mL/mg
- Beta, per-allele effect on DN AUC (UGT1A1; [9]): -0.055 log ng.h/mL/mg
- Beta, per-allele effect on DN Cmax (UGT1A1; [9]): 0.016 log ng/mL/mg
- number of AEs reported ([1]; Study 86, Asian healthy subjects): 21
- AE leading to discontinuation of selumetinib [1, 10]: no AE led to the discontinuation
- serious adverse event [1, 10]: no subject experienced a serious adverse event
- safety or tolerability concerns ([1]; Study 86, Asian healthy subjects, any dose level (25, 35 and 50 mg)): no safety or tolerability concerns
- number of AEs deemed related to selumetinib by the Investigator ([1]; Study 86, of the 21 AEs reported): 14
- substrate of transporter protein [2]: substrate
- serious AEs [3]: no serious AEs
